Test [1] has as its target T1, Sentrin-specific protease 1 (Homo sapiens, UniProt Q9P0U3). Description: SENP1 catalytic domain blockers, concentration series – biochemical, kinetic FRET, dose response (AID 651697). In kind it is functional. As to conditions: read-out: IC50_Mean.
The nature of test [2]: microbe, parasite or virus in culture. In kind it is functional. As to conditions: Mycobacterium tuberculosis.
Test [3] in a line: viability loss in HeLa cells – cytotoxicity control for MgcRacGAP inhibitor project, dose response (AID 624300). In kind it is functional.
Test [4] concerns the target T1, Sentrin-specific protease 1. Description: Dose response confirmation of small molecule inhibitors of the catalytic domain of the SUMO protease, SENP1 in a FRET assay. In kind it is functional. The settings on record: read-out: IC50_Mean.
The target of test [5] is T2, Rac GTPase-activating protein 1 (Homo sapiens, UniProt Q9H0H5).
T2 sequence (Q9H0H5 whole entry): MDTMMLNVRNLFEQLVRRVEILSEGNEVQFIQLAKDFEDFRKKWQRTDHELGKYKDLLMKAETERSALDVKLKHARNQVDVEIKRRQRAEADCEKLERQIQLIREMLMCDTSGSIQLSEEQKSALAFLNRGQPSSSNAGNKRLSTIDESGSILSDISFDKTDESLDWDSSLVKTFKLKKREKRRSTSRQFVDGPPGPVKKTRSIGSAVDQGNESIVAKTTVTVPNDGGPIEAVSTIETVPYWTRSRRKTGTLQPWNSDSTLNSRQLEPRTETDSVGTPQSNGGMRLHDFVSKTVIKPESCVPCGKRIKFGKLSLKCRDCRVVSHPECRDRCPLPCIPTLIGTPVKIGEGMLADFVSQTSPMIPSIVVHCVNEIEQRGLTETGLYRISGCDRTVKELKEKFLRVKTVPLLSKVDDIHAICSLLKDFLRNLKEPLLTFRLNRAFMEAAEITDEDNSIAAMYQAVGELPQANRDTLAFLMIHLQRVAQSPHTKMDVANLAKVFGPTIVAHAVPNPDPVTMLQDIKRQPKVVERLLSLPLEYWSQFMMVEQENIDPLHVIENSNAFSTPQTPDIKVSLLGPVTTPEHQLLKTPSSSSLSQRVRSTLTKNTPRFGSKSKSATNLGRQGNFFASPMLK
Description: blockers of MgcRacGAP-driven Rac1 GTP hydrolysis – biochemical, ADP Hunter fluorescence, primary and confirmatory, confirmation (AID 624330). In kind it is functional.

The nature of test [6]: loss of viability in HepG2 cells – cell-based, CellTiter-Glo, cherry-picked, cytotoxicity control for Shn3 inhibitor project, dose response (AID 624134). In kind it is functional.
Test [7] is described as follows: non-specific 3'UTR reporter inhibition in Clone20-Shn3RL – cell-based, Renilla luciferase, cherry-picked, counter-screen for Shn3 inhibitor project, dose response (AID 624133). The class given is functional. In general terms: Counterscreens check selectivity or assay interference.
Test [8] has as its target Heat shock protein HSP 90-alpha (Homo sapiens, UniProt P07900). The class given is functional, organism-based.
Test [9] in a line: Fluorescence-based cell-based high throughput dose response assay for inhibitors of the interaction of nucleotide-binding oligomerization domain containing 2 (NOD2) and the receptor-interacting serine-threonine kinase 2 (RIPK2). The settings on record: Homo sapiens. The class given is functional.
A further test deals with Beta Lactamase (Pseudomonas aeruginosa, UniProt Q932Y6). Description: BLA reporter interference, concentration series – BLA reporter cells, FRET fluorescence, artefact control for NOD2-RIPK2 interaction inhibitor project, dose response (AID 651552). In kind it is functional, cell-based.
Test [10] can be described thus: reduction of Shn3 3'UTR-driven luciferase in osteoblasts – cell-based, Clone20 osteoblasts, firefly luciferase, cherry-picked, dose response (AID 624132).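 Further: firefly luciferase luminescence from reporter carrying the Shn3 3'UTR in osteoblasts.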 In kind it is functional.
For test [11], the target named is T3, Corticotropin-releasing factor receptor 2/Corticotropin-releasing factor-binding protein (Homo sapiens, UniProt P24387+Q13324).
T3 sequence (Q13324 whole entry): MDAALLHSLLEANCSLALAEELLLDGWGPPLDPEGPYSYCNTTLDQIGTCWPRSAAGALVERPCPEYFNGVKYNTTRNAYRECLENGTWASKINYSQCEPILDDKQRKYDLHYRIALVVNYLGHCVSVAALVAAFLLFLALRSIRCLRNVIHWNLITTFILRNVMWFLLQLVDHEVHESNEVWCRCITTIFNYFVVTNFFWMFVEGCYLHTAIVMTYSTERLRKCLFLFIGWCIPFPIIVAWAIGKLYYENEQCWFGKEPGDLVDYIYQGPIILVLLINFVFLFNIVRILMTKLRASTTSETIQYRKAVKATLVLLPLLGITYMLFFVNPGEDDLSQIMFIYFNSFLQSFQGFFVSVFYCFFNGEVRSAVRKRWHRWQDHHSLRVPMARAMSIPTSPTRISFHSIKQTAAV
T3 sequence (P24387 whole entry): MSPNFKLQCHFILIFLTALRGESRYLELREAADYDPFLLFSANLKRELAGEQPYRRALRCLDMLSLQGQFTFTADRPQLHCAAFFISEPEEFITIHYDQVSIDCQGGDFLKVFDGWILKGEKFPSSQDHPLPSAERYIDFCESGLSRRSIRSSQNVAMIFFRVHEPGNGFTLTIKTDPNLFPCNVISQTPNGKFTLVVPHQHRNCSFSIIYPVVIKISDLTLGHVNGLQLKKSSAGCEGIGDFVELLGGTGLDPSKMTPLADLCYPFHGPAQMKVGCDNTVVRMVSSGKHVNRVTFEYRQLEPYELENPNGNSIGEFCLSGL
Description: activators of CRF receptor 2 with binding protein – uHTS hits, confirmation (AID 602473). As to conditions: read-out: EC50_Mean. The class given is functional.

The target of test [12] is T3, Corticotropin-releasing factor receptor 2/Corticotropin-releasing factor-binding protein. Description: Dose Response confirmation of uHTS hits for small molecule antagonists of the CRF-binding protein and CRF-R2 receptor complex. As to conditions: read-out: IC50_Mean. The class given is functional.
Test [13] in a line: blockers of CRF-binding protein–CRF-R2 complex – cell-based, uHTS hits, 384-well, dose response (AID 651639). As to conditions: read-out: IC50_Mean. In kind it is functional, Homo sapiens.
Test [14] is described as follows: fluconazole-exposed Candida albicans growth modulators – fluorescence, retest, confirmation (AID 2467). In kind it is functional, cell-based.
Test [15] is described as follows: NIH3T3 cell viability loss, ATP content – CellTiter-Glo luminescence, cherry-pick, set 2, cytotoxicity control for HSP40 inhibitor project, dose response (AID 624265). The class given is functional.
Test [16] can be described thus: cells. In kind it is functional, cell-based.
A further test deals with INS1. Description: INS-1E survival protection against cytokine death – cell-based, luminescence, retest, dose response (AID 449756).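 Further: cell death triggered by IL-1 beta plus TNF-alpha plus IFN-gamma mixture; protective hits raise ATP signal compared with cytokine alone wells.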 In kind it is functional. The settings on record: Rattus norvegicus.
A short description of test [17]: cells. In kind it is functional, cell-based. This is another data set of the same source.
Test [18] is described as follows: NIH-3T3 fibroblast cytotoxicity, dose response, cytotoxicity control, cell-based, fluorescence, Alamar Blue, secondary assay (AID 2327).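 Further: NIH-3T3 mouse fibroblasts cultured with fluconazole at 8 µg/mL.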 In kind it is functional.
In test [19] the target is T4, Heat shock factor protein 1 (Mus musculus, UniProt P38532).
T4 sequence (P38532 whole entry): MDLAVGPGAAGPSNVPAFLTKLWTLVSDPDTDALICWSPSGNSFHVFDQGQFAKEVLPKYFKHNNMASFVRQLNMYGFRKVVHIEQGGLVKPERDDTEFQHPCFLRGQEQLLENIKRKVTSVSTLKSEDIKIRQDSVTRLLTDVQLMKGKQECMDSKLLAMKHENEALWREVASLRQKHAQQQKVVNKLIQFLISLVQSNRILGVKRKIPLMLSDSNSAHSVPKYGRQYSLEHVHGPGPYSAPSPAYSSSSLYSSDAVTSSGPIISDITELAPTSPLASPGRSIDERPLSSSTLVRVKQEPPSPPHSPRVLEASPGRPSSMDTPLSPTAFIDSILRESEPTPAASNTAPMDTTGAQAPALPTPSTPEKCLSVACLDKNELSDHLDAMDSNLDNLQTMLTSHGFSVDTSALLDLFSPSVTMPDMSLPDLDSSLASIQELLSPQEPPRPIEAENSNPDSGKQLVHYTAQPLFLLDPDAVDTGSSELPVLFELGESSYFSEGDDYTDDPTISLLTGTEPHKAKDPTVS
Description: decrease of HSF1-responsive luciferase luminescence – cell-based, NIH3T3, dose retest, confirmation (AID 2382).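 Further: NIH3T3 fibroblasts with HSF1-driven luciferase reporter stressed by proteasome inhibitor MG132; luminescence from HSF1-driven luciferase expression after 8 hours of MG132 stress.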 The class given is functional.

Test [20] deals with T5, ATP-dependent translocase ABCB1 (Homo sapiens, UniProt P08183). Description: inhibition of BCRP-mediated JC-1 efflux – Ig-MXP3 cells, flow cytometry, set 2, dose response (AID 504566).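 Further: flow cytometry median green fluorescence of retained JC-1 dye; potency of efflux pump inhibition measured as rising substrate retention.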 The class given is functional. The settings on record: read-out: EC50_MICROM_. (In general: A flow cytometer gives signals particle by particle.)
The target of test [21] is T5, ATP-dependent translocase ABCB1. Description: P-gp JC-1 efflux blockade concentration-response – Jurkat-DNR cells, flow cytometry, set 2, dose response (AID 504569).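 Further: potency of pump inhibitors that raise cellular JC-1 green fluorescence up to the nicardipine level.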 In kind it is functional. As to conditions: read-out: EC50_MICROM_.
In test [22] the target is T6, Probable nicotinate-nucleotide adenylyltransferase (Staphylococcus aureus (strain N315), UniProt P65502). In kind it is functional, Staphylococcus aureus subsp. aureus N315. As to conditions: read-out: IC50_Mean.
For test [23], the target named is T6, Probable nicotinate-nucleotide adenylyltransferase. In kind it is functional, Staphylococcus aureus subsp. aureus N315.
Test [24] deals with ADP-ribosylation factor GTPase-activating protein 1 (Rattus norvegicus, UniProt Q62848). Description: Fluorescence polarization-based biochemical high throughput dose response screening assay to identify inhibitors of ADP-ribosylation factor GTPase activating protein 1 (ARFGAP1). The class given is functional. A general note: Polarisation of emitted light reports the rotation of a fluorescent probe.

A further test addresses Steroidogenic factor 1 (Homo sapiens, UniProt Q13285). Description: Counterscreen for inverse agonists of the liver receptor homolog-1 (LRH-1; NR5A2): Luminescence-based cell-based high throughput dose response assay to identify inverse agonists of the Steroidogenic Factor 1 Nuclear Receptor (SF1; NR5A1). The class given is functional.
The nature of test [25]: nonselective StAR promoter luciferase inhibitors – cell-based, luminescence, luciferase reporter, counter-screen for LRH-1 inverse agonist project, dose response (AID 651969). The class given is functional.
Test [26] has as its target Nuclear receptor subfamily 5 group A member 2 (Homo sapiens, UniProt O00482). In kind it is functional, cell-based.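 Further: HEK293T cells transfected with LRH-1 and a StAR promoter luciferase reporter; potency for inhibitors that lower LRH-1 driven reporter light.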
The target in test [27] is Mitogen-activated protein kinase 10 (Homo sapiens, UniProt P53779). Description: Dose response biochemical screening assay for inhibitors of c-Jun N-Terminal Kinase 3 (JNK3). [Related pubchem assays: 746 ].

The source made the active and inactive calls. Some results are limits rather than exact numbers.

T6 sequence (P65502 whole entry): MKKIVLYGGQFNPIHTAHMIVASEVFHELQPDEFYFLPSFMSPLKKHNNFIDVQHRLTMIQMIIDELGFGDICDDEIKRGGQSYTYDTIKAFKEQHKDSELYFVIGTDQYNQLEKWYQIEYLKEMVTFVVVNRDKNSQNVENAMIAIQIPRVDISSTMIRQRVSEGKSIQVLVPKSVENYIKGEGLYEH
T5 sequence (P08183 whole entry): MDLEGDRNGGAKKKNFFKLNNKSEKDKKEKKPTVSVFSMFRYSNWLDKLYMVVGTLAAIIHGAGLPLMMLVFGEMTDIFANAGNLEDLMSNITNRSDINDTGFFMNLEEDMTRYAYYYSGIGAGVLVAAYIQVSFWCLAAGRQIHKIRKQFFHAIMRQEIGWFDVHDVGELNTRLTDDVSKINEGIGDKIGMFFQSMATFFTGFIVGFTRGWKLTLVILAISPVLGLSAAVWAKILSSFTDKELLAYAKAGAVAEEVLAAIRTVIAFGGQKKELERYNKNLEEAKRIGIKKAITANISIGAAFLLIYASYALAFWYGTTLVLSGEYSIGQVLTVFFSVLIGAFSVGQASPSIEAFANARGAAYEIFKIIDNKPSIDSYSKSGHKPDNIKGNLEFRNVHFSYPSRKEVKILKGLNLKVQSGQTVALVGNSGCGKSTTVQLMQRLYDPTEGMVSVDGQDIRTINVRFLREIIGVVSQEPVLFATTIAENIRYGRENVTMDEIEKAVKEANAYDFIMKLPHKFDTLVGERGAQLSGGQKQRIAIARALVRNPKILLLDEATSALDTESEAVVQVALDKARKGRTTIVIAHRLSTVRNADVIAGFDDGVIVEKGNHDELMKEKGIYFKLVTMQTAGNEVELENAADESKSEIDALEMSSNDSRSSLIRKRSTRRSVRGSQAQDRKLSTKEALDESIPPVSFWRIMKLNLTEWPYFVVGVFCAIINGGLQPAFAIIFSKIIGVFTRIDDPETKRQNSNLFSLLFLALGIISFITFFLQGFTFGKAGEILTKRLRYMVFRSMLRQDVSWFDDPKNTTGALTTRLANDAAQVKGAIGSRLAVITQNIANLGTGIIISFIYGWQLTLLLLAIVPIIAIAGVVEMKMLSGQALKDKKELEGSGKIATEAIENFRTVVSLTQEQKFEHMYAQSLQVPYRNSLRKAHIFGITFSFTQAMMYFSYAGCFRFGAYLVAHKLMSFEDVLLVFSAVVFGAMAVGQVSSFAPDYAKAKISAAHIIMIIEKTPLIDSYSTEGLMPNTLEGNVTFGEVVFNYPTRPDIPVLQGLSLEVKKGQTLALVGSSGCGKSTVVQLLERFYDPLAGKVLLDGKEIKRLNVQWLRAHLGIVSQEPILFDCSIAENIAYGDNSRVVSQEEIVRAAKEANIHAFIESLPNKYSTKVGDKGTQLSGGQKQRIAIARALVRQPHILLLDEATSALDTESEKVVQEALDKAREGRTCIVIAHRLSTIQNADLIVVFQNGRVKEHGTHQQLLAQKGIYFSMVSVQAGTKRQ
T1 sequence (Q9P0U3 whole entry, the tested form may be a part): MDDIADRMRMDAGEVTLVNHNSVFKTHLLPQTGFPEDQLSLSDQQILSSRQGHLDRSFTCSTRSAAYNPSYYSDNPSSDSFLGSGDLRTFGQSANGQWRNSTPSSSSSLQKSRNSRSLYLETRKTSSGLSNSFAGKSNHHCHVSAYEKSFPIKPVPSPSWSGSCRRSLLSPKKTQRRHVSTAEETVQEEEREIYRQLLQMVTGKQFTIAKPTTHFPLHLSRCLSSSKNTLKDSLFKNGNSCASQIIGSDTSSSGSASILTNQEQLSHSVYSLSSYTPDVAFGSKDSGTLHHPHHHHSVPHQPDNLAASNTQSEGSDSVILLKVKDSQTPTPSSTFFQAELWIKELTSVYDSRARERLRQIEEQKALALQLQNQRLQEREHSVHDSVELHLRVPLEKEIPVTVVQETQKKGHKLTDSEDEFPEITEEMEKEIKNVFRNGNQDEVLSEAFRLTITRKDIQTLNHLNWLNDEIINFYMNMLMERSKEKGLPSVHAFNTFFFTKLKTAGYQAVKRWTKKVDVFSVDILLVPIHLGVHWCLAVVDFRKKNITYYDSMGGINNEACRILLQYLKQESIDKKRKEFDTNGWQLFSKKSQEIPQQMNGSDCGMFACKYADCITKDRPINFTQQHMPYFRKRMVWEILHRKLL
Nuclear receptor subfamily 5 group A member 2, sequence (O00482 whole entry): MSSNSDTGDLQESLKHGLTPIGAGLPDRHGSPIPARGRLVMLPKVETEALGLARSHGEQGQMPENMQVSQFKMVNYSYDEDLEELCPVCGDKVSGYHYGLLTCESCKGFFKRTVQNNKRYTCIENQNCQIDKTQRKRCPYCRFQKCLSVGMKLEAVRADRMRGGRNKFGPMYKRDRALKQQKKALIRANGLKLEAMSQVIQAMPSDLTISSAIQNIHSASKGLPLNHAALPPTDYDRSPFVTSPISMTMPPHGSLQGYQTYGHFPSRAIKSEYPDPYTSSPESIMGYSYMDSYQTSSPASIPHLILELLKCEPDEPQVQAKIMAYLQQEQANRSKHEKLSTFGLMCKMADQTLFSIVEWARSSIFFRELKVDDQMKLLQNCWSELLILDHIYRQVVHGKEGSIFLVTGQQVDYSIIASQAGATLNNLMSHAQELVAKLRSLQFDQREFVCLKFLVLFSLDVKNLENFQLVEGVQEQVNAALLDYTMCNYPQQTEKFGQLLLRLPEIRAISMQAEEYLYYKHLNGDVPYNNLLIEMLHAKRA
ADP-ribosylation factor GTPase-activating protein 1, sequence (Q62848 whole entry): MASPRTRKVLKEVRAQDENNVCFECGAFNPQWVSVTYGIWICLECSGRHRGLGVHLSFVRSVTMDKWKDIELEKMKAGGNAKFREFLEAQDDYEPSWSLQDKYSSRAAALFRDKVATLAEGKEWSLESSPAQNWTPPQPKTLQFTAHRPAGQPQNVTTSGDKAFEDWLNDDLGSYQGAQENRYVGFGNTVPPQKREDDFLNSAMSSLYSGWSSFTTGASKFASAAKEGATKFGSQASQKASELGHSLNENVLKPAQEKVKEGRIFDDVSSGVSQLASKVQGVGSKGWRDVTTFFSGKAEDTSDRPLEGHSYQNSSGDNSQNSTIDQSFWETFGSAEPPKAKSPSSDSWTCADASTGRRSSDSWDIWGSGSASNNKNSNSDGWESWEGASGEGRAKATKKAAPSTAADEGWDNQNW
Steroidogenic factor 1, sequence (Q13285 whole entry): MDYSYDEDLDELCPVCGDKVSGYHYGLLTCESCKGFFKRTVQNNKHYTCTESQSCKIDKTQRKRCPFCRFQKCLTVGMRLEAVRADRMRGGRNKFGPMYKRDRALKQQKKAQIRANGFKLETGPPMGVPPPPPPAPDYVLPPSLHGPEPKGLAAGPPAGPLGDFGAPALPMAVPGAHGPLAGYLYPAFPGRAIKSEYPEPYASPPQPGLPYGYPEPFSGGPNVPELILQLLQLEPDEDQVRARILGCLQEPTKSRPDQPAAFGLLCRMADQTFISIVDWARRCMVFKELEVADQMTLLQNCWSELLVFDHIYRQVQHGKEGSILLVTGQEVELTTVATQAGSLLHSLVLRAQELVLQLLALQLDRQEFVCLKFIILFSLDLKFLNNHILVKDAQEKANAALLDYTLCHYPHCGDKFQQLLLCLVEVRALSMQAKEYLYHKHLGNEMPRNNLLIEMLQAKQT
Mitogen-activated protein kinase 10, sequence (P53779 whole entry): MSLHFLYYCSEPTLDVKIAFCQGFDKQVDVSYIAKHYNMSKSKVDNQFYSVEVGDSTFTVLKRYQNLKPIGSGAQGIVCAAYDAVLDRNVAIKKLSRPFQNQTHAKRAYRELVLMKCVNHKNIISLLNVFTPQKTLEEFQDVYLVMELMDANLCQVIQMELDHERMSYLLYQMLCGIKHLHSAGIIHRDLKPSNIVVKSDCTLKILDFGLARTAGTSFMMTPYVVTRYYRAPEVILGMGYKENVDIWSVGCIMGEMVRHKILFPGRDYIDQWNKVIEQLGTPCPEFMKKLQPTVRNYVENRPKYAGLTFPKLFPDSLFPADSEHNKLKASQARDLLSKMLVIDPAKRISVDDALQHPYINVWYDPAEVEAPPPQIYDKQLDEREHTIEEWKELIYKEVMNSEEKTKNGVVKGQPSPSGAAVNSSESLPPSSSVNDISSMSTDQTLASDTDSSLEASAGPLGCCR
Beta Lactamase, sequence (Q932Y6 whole entry): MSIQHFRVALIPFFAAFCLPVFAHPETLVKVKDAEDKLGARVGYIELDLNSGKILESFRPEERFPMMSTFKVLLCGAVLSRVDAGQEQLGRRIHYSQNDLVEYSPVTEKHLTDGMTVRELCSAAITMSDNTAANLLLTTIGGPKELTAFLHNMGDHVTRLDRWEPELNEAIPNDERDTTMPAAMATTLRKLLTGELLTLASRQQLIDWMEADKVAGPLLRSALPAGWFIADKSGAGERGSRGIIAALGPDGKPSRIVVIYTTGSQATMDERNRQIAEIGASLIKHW

As to `C/C(=N\NC(=O)c1ccc(O)cc1)c1ccc2c(c1)Nc1ccccc1S2`, the IC50 in test [1] was 7.06 µM (active); in test [4], 4.61 µM (active); in [5], 35.3 µM (active). The CC50 in test [2] is 21.2 µM (active); in test [3], 86.9 µM (active).

As usually defined, the AC50 is the midpoint of the concentration-response curve, whichever way the signal moves. As to `C=C1C(=O)C23CCC4C(C)(C(=O)OC)CCCC4(C)C2CCC1(O)C3` (stereo unspecified), the AC50 in test [6] is 5.71 µM (active); in test [7], 1.66 µM (active); in [8], 1.27 µM (active); in [10], 0.976 µM (active). In addition, the IC50 in [9] was 1.36 µM (active); on Beta Lactamase, 46.8 µM (inactive).

For the compound `COc1cccc(C2CC(c3cccs3)=NN2C(=O)c2ccco2)c1O` (stereo unspecified), the EC50 in test [11] is > 53 µM (inactive). For the same compound, the IC50 in [12] is 5.3 µM (active); in test [13] it was 1.51 µM (active).

`Oc1ccc(Br)cc1/C=N/Nc1ccccn1`: the EC50 in test [14] was 1.51 µM (active); in the test “cells [16]” it was 22.5 µM (active); in the test “cells [17]” it was 6.83 µM (active); in [18], 3.83 µM (inconclusive); in [19] it was 3.19 µM (active). This compound yielded an AbsAC35_uM in [15] of 82.89 µM. In addition, the AC50 was 1.98 µM (active) in the test with INS1 and 1.32 µM (active) in test [8].

On to `Cc1cc(N2CCN(C(=O)c3ccoc3)CC2)n2nc(-c3ccc(Br)cc3)cc2n1`, for which the EC50 in test [20] is 2.08 µM (active); in test [21], 11.2 µM (active).

As for `Cc1nn(-c2ccccc2)c(N2CCCC2)c1/C=N/NC(=O)c1cccc(S(=O)(=O)Nc2ccc(Cl)cc2)c1`, the figures for the IC50 in [22] and in [23] were 28.9 µM (active) and 8.05 µM (active), respectively.

Consider `Cc1cc(=O)oc2cc(OCc3ccc(C(=O)OCC(=O)Nc4ccccc4OC(F)F)cc3)ccc12`, for which the IC50 in test [24] is 31.3 µM (inactive).

Consider `O=C(NCc1cccnc1)c1cccc2c1C(=O)N(C1CCCCC1)C2`, for which the IC50 was 3.71 µM (active) at Steroidogenic factor 1, 35.9 µM (inactive) in [25], 17.8 µM (inactive) in test [26] and 27.4 µM (not active) in test [27].

These data come from ChEMBL document CHEMBL1201862, “PubChem BioAssay data set” (2004).
